Literature values in US20110124589A1, “INHALED FOSFOMYCIN/TOBRAMYCIN FOR THE TREATMENT OF CHRONIC OBSTRUCTIVE PULMONARY DISEASE” (Gilead Sciences, Inc., priority 2009, published 2011).
In brackets after ≈: the same amount, converted by molar mass.

Test system: S. aureus
Conditions: 16 isolates; agar dilution; cited from earlier work

SMILES: O=C(O)c1cn(C2CC2)c2cc(N3CCNCC3)c(F)cc2c1=O [ciprofloxacin]
- MIC50: > 4 µg/mL

SMILES: CN[C@H](CC(C)C)C(=O)N[C@H]1C(=O)N[C@@H](CC(N)=O)C(=O)N[C@H]2C(=O)N[C@H]3C(=O)N[C@H](C(=O)N[C@H](C(=O)O)c4cc(O)cc(O)c4-c4cc3ccc4O)[C@H](O)c3ccc(c(Cl)c3)Oc3cc2cc(c3O[C@@H]2O[C@H](CO)[C@@H](O)[C@H](O)[C@H]2O[C@H]2C[C@](C)(N)[C@H](O)[C@H](C)O2)Oc2ccc(cc2Cl)[C@H]1O [vancomycin]
- MIC50: 1 µg/mL (≈ 0.69 µM)
